Reference: US20080003634A1, “Extended Primary Retinal Cell Culture and Stress Models, and Methods of Use” (ACUCELA, INC., priority 2003, published 2008)

Legend:
[1] = test system: bovine retinal pigment epithelial cells; conditions: bovine RPE cells; cited from earlier work
[2] = test system: rhodopsin-expressing photoreceptors; assay: A2E-induced stress, rhodopsin-labeled photoreceptor count in mature retinal cell culture; format: cell-based, Porcine
Text: (§1) Porcine eyes were obtained from Kapowsin Meats, Inc. (Graham, Wash.). Eyes were enucleated, and muscle and tissue were cleaned away from the orbit. Eyes were cut in half along their equator and the neural retina was dissected from the anterior part of the eye in buffered saline solution, according to standard methods known in the art. Briefly, the retina, ciliary body, and vitreous were dissected away from the anterior half of the eye in one piece, and the retina was gently detached from the clear vitreous. Each retina was dissociated with papain (Worthington Biochemical Corporation, Lakewood, N.J.), followed by inactivation with fetal bovine serum (FBS) and addition of 134 Kunitz units/ml of DNaseI. […]
(§2) Cultures were analyzed by counting rhodopsin-labeled photoreceptors and NFM-labeled ganglion cells using an Olympus IX81 or CZX41 microscope (Olympus, Tokyo, Japan). Twenty fields of view were counted per coverslip with a 20× objective lens. Six coverslips were analyzed by this method for each condition in each experiment. Cells that were not exposed to any stressor were counted, and cells exposed to a stressor were normalized to the number of cells in the control. […]
(§3) Immunocytochemical analysis was performed and the data analyzed as described in Examples 1 and 2.

[3] = test system: rhodopsin-expressing photoreceptors; assay: EPO effect on photoreceptor survival under A2E stress in retinal cell culture; format: cell-based, Porcine; conditions: A2E 25 μM for 24 hours, no EPO; FIG. 13
Text: as §1
as §2, with “exposed to either EPO or to any stressor” for “exposed to any stressor”, “a stressor with or without treatment with EPO were normalized” for “a stressor were normalized”

[4] = test system: NFM-expressing ganglion cells; assay: A2E-induced stress, NFM-labeled ganglion cell count in mature retinal cell culture; format: cell-based, Porcine
Text: as §1, §2, §3

| Compound | growth and replication of the cells [1] | death of photoreceptor cells compared to photoreceptor cells not exposed to A2E ([2]; 20 μM A2E for 48 hours) | number of rhodopsin-expressing photoreceptors ([2]; varying concentrations of A2E (0, 10, 20, 40 μM), 24 hours, FIG. 7) | total live cell count of rhodopsin-expressing photoreceptors after stress versus before stress [3] | survival of ganglion cells ([4]; 20 μM A2E for 48 hours) | number of NFM-expressing ganglion cells versus no stress ([4]; 20 μM A2E, 24 hours, FIG. 8) |
| --- | --- | --- | --- | --- | --- | --- |
| c1ccc2c(c1)cc1ccc3cccc4ccc2c1c34 [benzo(a)pyrene] | appeared to inhibit growth and replication | – | – | – | – | – |
| CC(C=CC1=C(C)CCCC1(C)C)=CC=CC(C)=Cc1cc(C=CC=C(C)C=CC2=C(C)CCCC2(C)C)cc[n+]1CCO [A2E, N-retinylidene-N-retinyl-ethanolamine] | – | more than 90% | showed a dose response | much smaller | not adversely affected | not statistically different |
